“Also recorded” adds a separate entry of the source. Counter-ions that a name gives are not always drawn.
Key:
Proteus vulgaris = assay: Minimum inhibitory concentration, standard serial dilution method on Heart Infusion agar; type: cell-based; conditions: 37° C., 16 hours
Protocol: (§1) Antibacterial activity of SF-2052 substance of this invention (as the sulfate) to inhibit the growth of various bacteria was estimated according to a standard serial dilution method using Heart Infusion agar as the incubation medium. The incubation was made at a temperature of 37° C. for 16 hours.

Sarcina lutea = assay: as above; type: cell-based; conditions: Micrococcus luteus, 37° C., 16 hours
Protocol: as §1

Klebsiella pneumonia = assay: as above; type: cell-based; conditions: Klebsiella pneumoniae, 37° C., 16 hours
Protocol: as §1

Escherichia coli K-12-R = assay: as above; type: cell-based; conditions: 16 h
Protocol: as §1

[1] = system: Staphylococcus aureus 209P; assay: as above; type: cell-based; conditions: 37° C., 16 hours
Protocol: as §1

Pseudomonas aeruginosa = assay: as above; type: cell-based; conditions: 37° C., 16 hours
Protocol: as §1

[2] = system: Mycobacterium smegmatis 607 Km-R; assay: as above; type: cell-based; conditions: Mycolicibacterium smegmatis, 607KMR, 16 h
Protocol: as §1

Escherichia coli B = assay: as above; type: cell-based; conditions: 37° C., 16 hours
Protocol: as §1

[3] = system: Mycobacterium smegmatis 607 Sm-R; assay: as above; type: cell-based; conditions: Mycolicibacterium smegmatis, 607SMR, 16 h
Protocol: as §1

Escherichia coli = assay: as above; type: cell-based; conditions: 37° C., 16 hours
Protocol: as §1

[4] = system: Bacillus subtillis PCI-219; assay: as above; type: cell-based; conditions: PCI219, 37° C., 16 hours
Protocol: as §1

mice = assay: Acute toxicity, intravenous injection in mice; type: in vivo; conditions: in words
Description: (§2) For determination of acute toxicity of the SF-2052 substance sulfate, this was intravenously injected as its solution in isotonic aqueous solution of sodium chloride into several groups of mice. […] According to this invention, therefore, there is further provided an antibacterial composition comprising as the active ingredient an antibacterially effective amount of at least one of the pharmaceutically acceptable acid-addition salts of the SF-2052 substance, in association with a pharmaceutically acceptable liquid or solid carrier. The content of this active ingredient in this antibacterial composition may be in a range of 5% to 50% by weight of the composition.

[5] = Acute toxicity, intravenous injection in mice; type: in vivo; conditions: mouse, in vivo, solution in isotonic aqueous sodium chloride, estimated
Description: as §2

Stability = type: physicochemical
[6] = system: gram-negative and gram-positive bacteria; assay: Antibacterial activity, summary of Table 1; type: cell-based; conditions: against both gram-negative and gram-positive bacteria
Protocol: as §1

Solubility = type: physicochemical; conditions: for solubility in organic solvents: chloroform, ethyl acetate

| Structure (SMILES) | MIC (Proteus vulgaris) | MIC (Sarcina lutea) | MIC (Klebsiella pneumonia) | MIC (Escherichia coli K-12-R) | MIC [1] | MIC (Pseudomonas aeruginosa) | MIC [2] | MIC (Escherichia coli B) | MIC [3] | MIC (Escherichia coli) | MIC [4] | acute toxicity (mice) | LD50 [5] | stability under alkaline pH conditions (Stability) | antibacterial activity [6] | stability under acidic to neutral pH conditions (Stability; acidic to neutral pH) | solubility in organic solvents (Solubility; hexane, benzene and ethylether etc.) | solubility in organic solvents (Solubility; benzene and ethylether) | solubility in methanol (Solubility; methanol) | solubility in water (Solubility; water) |
| --- | --- | --- | --- | --- | --- | --- | --- | --- | --- | --- | --- | --- | --- | --- | --- | --- | --- | --- | --- | --- |
| COC1C(O)C(N)C(OC2OC(C(C)N)CCC2N)C(O)C1N(C)C(=O)CNC=N (stereo not drawn) [SF-2052 substance sulfate] | 1.56 µg/mL | 0.78 µg/mL | 3.12 µg/mL | 3.12 µg/mL | 3.12 µg/mL | 100 µg/mL | 100 µg/mL | 6.25 µg/mL | 1.56 µg/mL | 12.5 µg/mL | 1.56 µg/mL | substantially non-toxic | 350 mg/kg | – | – | – | – | – | – | – |
| COC1C(O)C(N)C(OC2OC(C(C)N)CCC2N)C(O)C1N(C)C(=O)CNC=N (stereo not drawn) [SF-2052 substance] | – | – | – | – | – | – | – | – | – | – | – | – | – | very instable; also recorded: instable | high antibacterial activity against both gram-negative and gram-positive bacteria | – | – | – | – | – |
| COC1C(O)C(N)C(OC2OC(C(C)N)CCC2N)C(O)C1N(C)C(=O)CNC=N (stereo not drawn) [SF-2052 substance hydrochloride] | – | – | – | – | – | – | – | – | – | – | – | – | – | instable | – | Relatively stable; also recorded: substantially stable | substantially insoluble | insoluble | soluble in methanol | Easily soluble in water; also recorded: readily soluble in water |
